Measured values reported in US7595330B2, “Benzimidazole thiophene compounds” (SmithKline Beecham Corporation, priority 2005, dated 2009).
Like-named read-outs stand apart in the source and are kept apart here.

Assays:
PLK1 kinase domain = target: T1, PLK1 kinase domain (Homo sapiens, UniProt P53350); test: Assay for inhibition of PLK1 (SPA, 33P-ATP, biotinylated peptide substrate); format: biochemical; settings: 1 μM ATP, 2 nM PLK1 kinase domain; read-out: PLK1 pIC50 (converted)
T1 construct: made in house; host or cells: baculovirus infected T. ni cells
T1 sequence (P53350 21-346): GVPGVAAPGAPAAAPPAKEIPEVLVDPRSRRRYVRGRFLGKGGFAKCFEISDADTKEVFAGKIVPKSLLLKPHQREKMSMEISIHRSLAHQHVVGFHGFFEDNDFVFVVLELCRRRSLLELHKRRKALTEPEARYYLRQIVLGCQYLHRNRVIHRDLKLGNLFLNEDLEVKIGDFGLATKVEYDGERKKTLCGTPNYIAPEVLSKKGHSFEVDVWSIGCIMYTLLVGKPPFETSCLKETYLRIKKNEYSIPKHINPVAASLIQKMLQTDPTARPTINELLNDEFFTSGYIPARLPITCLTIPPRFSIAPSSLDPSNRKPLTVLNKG
Experimental: I. Assay for Inhibition of PLK1
All procedures were performed at 4° C. Cells were lysed in 50 mM HEPES, 200 mM NaCl, 50 mM imidazole, 5% glycerol; pH 7.5. The homogenate was centrifuged at 14K rpm in a SLA-1500 rotor for 1 h and the supernatant filtered through a 1.2 micron filter. The supernatant was loaded onto a Nickel chelating Sepharose (Amersham Pharmacia) column and washed with lysis buffer. Protein was eluted using 20%, 30% and 100% buffer B steps where buffer B is 50 mM HEPES, 200 mM NaCl, 300 mM imidazole, 5% glycerol; pH 7.5. Fractions containing PLK were determined by SDS-PAGE. Fractions containing PLK were diluted five-fold with 50 mM HEPES, 1 mM DTT, 5% glycerol; pH 7.5, then loaded on an SP Sepharose (Amersham Pharmacia) column. After washing the column with 50 mM HEPES, 1 mM DTT, 5% glycerol; pH 7.5, PLK was step eluted with 50 mM HEPES, 1 mM DTT, 500 mM NaCl; 5% glycerol; pH 7.5. PLK was concentrated using a 10 kDa molecular weight cutoff membrane and then loaded onto a Superdex 200 gel filtration (Amersham Pharmacia) column equilibrated in 25 mM HEPES, 1 mM DTT, 500 mM NaCl, 5% glycerol; pH 7.5. Fractions containing PLK were determined by SDS-PAGE. PLK was pooled, aliquoted and stored at −80° C. Samples were quality controlled using mass spectrometry, N-terminal sequencing and amino acid analysis.
B. Enzyme activity +/− inhibitors was determined as follows: All measurements were obtained under conditions where signal production increased linearly with time and enzyme. Test compounds were added to white 384-well assay plates (0.1 μL for 10 μL and some 20 μL assays, 1 μL for some 20 μL assays) at variable known concentrations in 100% DMSO. DMSO (1-5% final, as appropriate) and EDTA (65 mM in reaction) were used as controls.
Reaction Mix (10 or 20 μL) was quickly added to each well immediately following addition of enzyme via automated liquid handlers and incubated 1-1.5 h at 22° C. The 20 μL enzymatic reactions were stopped with 50 μL of stop mix (50 mM EDTA, 4.0 mg/ml Streptavidin SPA beads in Standard Dulbecco's PBS (without Mg^2+ and Ca^2+), 50 μM ATP) per well. The 10 μL reactions were stopped with 10 μL of stop mix (50 mM EDTA, 3.0 mg/mL Streptavidin-coupled SPA Imaging Beads (“LeadSeeker”) in Standard Dulbecco's PBS (without Mg^2+ and Ca^2+), 50 μM ATP) per well. Plates were sealed with clear plastic seals, spun at 500×g for 1 min or settled overnight, and counted in Packard TopCount for 30 seconds/well (regular SPA) or imaged using a Viewlux imager (LeadSeeker SPA). Signal above background (EDTA controls) was converted to percent inhibition relative to that obtained in control (DMSO-only) wells.

HCT116 [1] = test: Methylene blue growth inhibition assay, HCT116; format: cell-based; settings: Homo sapiens
Experimental: (§1) II. Methylene Blue Growth Inhibition Assay—Inhibition of Cell Proliferation by PLK1 Inhibitors
(§2) Generally, exponentially growing cell lines of different tumor origins, cultured in appropriate media containing 10% fetal bovine serum at 37° C. in a 5% CO2 incubator were plated at low density (less than 2000 cells/well) in 96-well plates. […]. Seventy two hours post-treatment, cell numbers were determined using 100 μl per well of methylene blue (Sigma M9140) (0.5% in 50:50 Ethanol:water). Stain was incubated at room temperature for 30 minutes before plates were rinsed and dye solubilized in 1% N-lauroyl sarcosine, sodium salt, (Sigma L5125, in PBS) (further details of a methylene blue assay are described below). Plates were read on a microplate reader, measuring the OD at 620 nm.
(§3) . The data are shown in Table 1 below and represent a compilation of several different experiments, each performed using the general parameters outlined above, although minor variations may have been employed in some instances.
(§4) In one assay, normal human foreskin fibroblasts (HFF), human colon (HCT116, RKO), lung (H460, A549) and breast (MCF7) tumor cell lines were cultured in high glucose DMEM (Life Technologies) containing 10% fetal bovine serum (FBS) at 37° C. in a humidified 5% CO2, 95% air incubator. Cells were harvested using trypsin/EDTA, counted using a haemocytometer, and plated in 100 μL of culture media per well, at the following densities, in a 96-well tissue culture plate (Falcon 3075): HFF 5,000 cells/well, HCT116 3,000 cells/well, RKO 2,500 cells/well, H460 2,500 cells/well, A549 5,000 cells/well, MCF7 4,000 cells/well. The next day, compounds were diluted in low glucose DMEM containing 100 μg/mL gentamicin, at twice the final required concentration, from 10 mM stock solutions in DMSO. 100 μL/well of these dilutions were added to the 100 μL of media currently in the assay plates. Medium containing 0.6% DMSO was added to control wells. The final concentration of DMSO in all wells was 0.3%. Cells were incubated at 37° C., 5% CO2 for 72 h. Medium was removed by aspiration. Cell biomass was estimated by staining cells with 80 μL per well methylene blue (Sigma M9140, 0.5% in 50:50 ethanol:water), and incubation at room temperature for 30-60 min. Stain was removed by aspiration and the plates rinsed by immersion in water, then air-dried. To release stain from the cells, 100 μL of solubilization solution was added (1% N-lauroyl sarcosine, Sodium salt, Sigma L5125, in PBS), and plates were shaken gently for about 30 min. Optical density at 620 nm was measured on a microplate reader. Percent inhibition of cell growth was calculated relative to vehicle treated control wells. […].

H460 = test: Methylene blue growth inhibition assay, H460; format: cell-based; settings: Homo sapiens
Experimental: as §1, §2, §3, §4

MCF7 [2] = test: Methylene blue growth inhibition assay, MCF7; format: cell-based; settings: Homo sapiens
Experimental: as §1, §2, §3, §4

A549 = test: Methylene blue growth inhibition assay, A549; format: cell-based; settings: Homo sapiens
Experimental: as §1, §2, §3, §4

RKO = test: Methylene blue growth inhibition assay, RKO; format: cell-based; settings: Homo sapiens, 72 h
Experimental: as §1, §2, §3, §4

[3] = tested on: normal human foreskin fibroblasts (HFF); test: Methylene blue growth inhibition assay, HFF; format: cell-based; settings: Fibroblast, 72 h
Experimental: as §1, §2, §3, §4

human plasma proteins = test: Protein binding to human plasma proteins using equilibrium dialysis; format: in vitro ADME; settings: pH 7.4, equilibrium dialysis 6 h, 37° C.
Experimental: III. Determination of Protein Binding to Human Plasma Proteins Using Equilibrium Dialysis
96 Well Plate (High Throughput Dialysis): Stock solutions of compounds were spiked into human plasma at a target concentration of 2000 ng/mL. The mixture was inverted gently several times to insure homogeneity and triplicate 50 μL aliquots were collected to verify initial concentrations. Following assembly of dialysis plate (HTDialysis membrane strips, molecular weight cut off limit of 12,000-14,000 daltons), spiked plasma (150 μL) was placed in the donor compartment of the well and Phosphate Buffered Saline pH 7.4 (150 μL) in the receiver compartment. Eight wells were set up per compound and plasma type. Plate was placed in a 37° C. incubator on a plate shaker. Following the 6 h incubation period, the plate was removed. Single 50 μL aliquots from each donor and receiver compartment (per well) were analyzed. Sample analysis was by LC/MS/MS (results reported as Drug Peak Area/Internal Standard Peak Area ratios). Protein binding assay can also be performed using dialysis cells instead of HT Dialysis 96 well plates. In Table 1, % Protein Binding, +=>98%; ++=95-98%: +++=<95%.

[4] = High throughput solubility assay; format: physicochemical; settings: aqueous buffer, pH 7.4, 0.05M phosphate buffer
Experimental: IV. High Throughput Solubility Assay
Two samples are prepared for each compound. One (the standard sample) contains the compound at a fixed concentration of 20 μM in an aqueous/organic mixed solvent cocktail. The other (the test sample) contains the compound at a maximum concentration of 200 μM in pH 7.4, 0.05M phosphate buffer and shaking for 24 h. The test sample is filtered by 0.45μ filter and then spun for 10 min to remove any undissolved solid. HPLC analyses are preformed on these samples. The peak areas are used for computing solubility.

HCT116 [5] = test: Cell-Titer-Glo inhibition of cell proliferation, HCT116; format: cell-based; settings: Homo sapiens, HCT-116, CellTiter-Glo, 72 h
Experimental: (§5) V. Cell-Titer-Glo—Inhibition of Cell Proliferation by PLK1 Inhibitors
(§6) Exponentially growing cell lines of different tumor origins, cultured in appropriate media containing 10% fetal bovine serum at 37° C. in a 5% CO2 incubator were plated at low density (less than 2000 cells/well) in 96-well plates. Twenty four hours post-plating, cells were treated with different concentrations of test compounds ranging from 10 uM to 0.04 nM. Several wells were left untreated as a control. Seventy two hours post-treatment, cell numbers were determined using 50-100 ul per well of CellTiter-Glo (Promega #G7573). Plates were incubated at room temperature for 15 minutes and the chemiluminescent signal was read on the Victor V or Envison 2100 reader.
(§7) The Cell-Titer Glo data are shown in Table 2 below and represent a compilation of several different experiments, each performed using the general parameters outlined above, although minor variations may have been employed in some instances.

A549-L = test: Cell-Titer-Glo inhibition of cell proliferation, A549-L; format: cell-based; settings: CellTiter-Glo, 72 h
Experimental: as §5, §6, §7

COLO205 = test: Cell-Titer-Glo inhibition of cell proliferation, COLO205; format: cell-based; settings: Homo sapiens, COLO 205, CellTiter-Glo, 72 h
Experimental: as §5, §6, §7

HT29 = test: Cell-Titer-Glo inhibition of cell proliferation, HT29; format: cell-based; settings: Homo sapiens, HT-29, CellTiter-Glo, 72 h
Experimental: as §5, §6, §7

MX-1 = test: Cell-Titer-Glo inhibition of cell proliferation, MX-1; format: cell-based; settings: Homo sapiens, MX1, CellTiter-Glo, 72 h
Experimental: as §5, §6, §7

SKOV-3 = test: Cell-Titer-Glo inhibition of cell proliferation, SKOV-3; format: cell-based; settings: Homo sapiens, SK-OV-3, CellTiter-Glo, 72 h
Experimental: as §5, §6, §7

H1299 = test: Cell-Titer-Glo inhibition of cell proliferation, H1299; format: cell-based; settings: Homo sapiens, NCI-H1299, CellTiter-Glo, 72 h
Experimental: as §5, §6, §7

MCF7 [6] = test: Cell-Titer-Glo inhibition of cell proliferation, MCF7; format: cell-based; settings: Homo sapiens, CellTiter-Glo, 72 h
Experimental: as §5, §6, §7

MV522 = test: Cell-Titer-Glo inhibition of cell proliferation, MV522; format: cell-based; settings: CellTiter-Glo, 72 h
Experimental: as §5, §6, §7

MDA-MB-468 = test: Cell-Titer-Glo inhibition of cell proliferation, MDA-MB-468; format: cell-based; settings: Homo sapiens, CellTiter-Glo, 72 h
Experimental: as §5, §6, §7

[7] = HCT-116, methylene blue, 72 h, HCT116, read-out: HCT116 IC50
[8] = NCI-H460, methylene blue, 72 h, H460, read-out: H460 IC50
[9] = methylene blue, 72 h, MCF7, read-out: MCF7 IC50
[10] = methylene blue, 72 h, A549, read-out: A549 IC50
[11] = methylene blue, read-out: RKO IC50
[12] = methylene blue, HFF normal fibroblasts, read-out: HFF IC50

SMILES	IC50 (PLK1 kinase domain) [nM]	IC50 (HCT116 [1]; [7]) [µM]	IC50 (H460; [8]) [µM]	IC50 (MCF7 [2]; [9]) [µM]	IC50 (A549; [10]) [µM]	IC50 (RKO; [11]) [µM]	IC50 [3, 12] [µM]	fraction unbound at 6 h, 2000 ng/mL (human plasma proteins)	solubility at 24 h [4] [µM]	further results
C[C@@H](Oc1cc(-n2cnc3ccc(CS(C)(=O)=O)cc32)sc1C(N)=O)c1ccccc1C(F)(F)F [Example 1, 5-{6-[(Methylsulfonyl)methyl]-1H-benzimidazol-1-yl}-3-({(1R)-1-[2-(trifluoromethyl)phenyl]ethyl}oxy)-2-thiophenecarboxamide]	< 10	< 0.1	< 0.1	< 0.1	< 0.1	< 0.1	0.1 to 1	0.02 to 0.05	30 to 100	–
NC(=O)c1sc(-n2cnc3ccc(OCC4CCNCC4)cc32)cc1OCc1ccccc1C(F)(F)F [Com. Ex 143, reference compound]	10 to 1000	0.1 to 1	> 1	0.1 to 1	> 1	0.1 to 1	> 1	> 0.05	< 30	–
C[C@@H](Oc1cc(-n2cnc3ccc(OC4CCNCC4)cc32)sc1C(N)=O)c1ccccc1C(F)(F)F [Example 5, 5-[6-(4-Piperidinyloxy)-1H-benzimidazol-1-yl]-3-({(1R)-1-[2-(trifluoromethyl)phenyl]ethyl}oxy)-2-thiophenecarboxamide]	–	–	–	–	–	–	–	0.02 to 0.05	> 100	IC50 (HCT116 [1]; HCT-116, 72 h, read-out: HCT116 IC50 (μM)): < 0.1 µM; IC50 (H460; NCI-H460, 72 h, read-out: H460 IC50 (μM)): < 0.1 µM; IC50 (MCF7 [2]; MCF7, 72 h, read-out: MCF7 IC50 (μM)): < 0.1 µM; IC50 (A549; A549, 72 h, read-out: A549 IC50 (μM)): < 0.1 µM; IC50 (RKO; read-out: RKO IC50 (μM)): < 0.1 µM; IC50 ([3]; read-out: HFF IC50 (μM)): 0.1 to 1 µM; IC50 (HCT116 [5]): < 500 nM; IC50 (A549-L): < 500 nM; IC50 (COLO205): < 500 nM; IC50 (HT29): < 500 nM; IC50 (MX-1): < 500 nM; IC50 (SKOV-3): < 500 nM; IC50 (H1299): < 500 nM; IC50 (MCF7 [6]): < 500 nM; IC50 (MV522): < 500 nM; IC50 (MDA-MB-468): < 500 nM
